From patent US8691991B2 (priority 2004, dated 2014) come the findings set out here.

In this assay the test system is Pseudotyped HIV vector. Kind of assay: Pseudotyped HIV vector expressing luciferase reporter assay. It counts as cell-based. How it is done: Pseudotyped HIV Vector Expressing Luciferase Reporter Assay
Expression of luciferase reporter following viral integration was performed essentially as described in Jármy, G. et al., J. Medical Virology, 64:223-231, 2001.
(In general: A reporter such as luciferase makes a cellular process visible.)

Structures are written as SMILES. Read-outs that look alike come from different tables or passages of the source. Where only a bound is given, the exact number is not on record here.

One may read the IC50 as the concentration that inhibits the measured activity by half. On to `Cn1c(=O)c(C(=O)NCCCN2CCOCC2)c(O)c2ncc(Cc3ccc(F)cc3)cc21` [Example 97, 7-[(4-Fluorophenyl)methyl]-4-hydroxy-1-methyl-N-[3-(4-morpholinyl)propyl]-2-oxo-1,2-dihydro-1,5-naphthyridine-3-carboxamide], for which the IC50 (Human immunodeficiency virus 1) is < 10 nM.
With `COCCNC(=O)c1c(O)c2ncc(Cc3ccc(F)cc3)cc2n(Cc2nccn2C)c1=O` [Example 467, 7-[(4-Fluorophenyl)methyl]-4-hydroxy-1-[(1-methyl-1H-imidazol-2-yl)methyl]-N-[2-(methyloxy)ethyl]-2-oxo-1,2-dihydro-1,5-naphthyridine-3-carboxamide], the IC50 (Human immunodeficiency virus 1) was < 10 nM.
As to `Cn1c(=O)c(C(=O)NC[C@@H](O)CO)c(O)c2ncc(Cc3ccc(F)cc3)cc21` [Example 516, N-[(2R)-2,3-Dihydroxypropyl]-7-[(4-fluorophenyl)methyl]-4-hydroxy-1-methyl-2-oxo-1,2-dihydro-1,5-naphthyridine-3-carboxamide], the IC50 (Human immunodeficiency virus 1) is < 10 nM.
Same read-out and setting: then `COCCNC(=O)c1c(O)c2ncc(Cc3ccc(F)cc3)cc2[nH]c1=O` [Example 2, 7-(4-Fluorobenzyl)-4-hydroxy-N-(2-methoxyethyl)-2-oxo-1,2-dihydro-1,5-naphthyridine-3-carboxamide], with < 10 nM.
Turning to `COCCNC(=O)c1c(O)c2ncc(Cc3ccccc3)cc2n(Cc2nccs2)c1=O` [Example 62, 7-Benzyl-4-hydroxy-N-(2-methoxyethyl)-2-oxo-1-(1,3-thiazol-2-ylmethyl)-1,2-dihydro-1,5-naphthyridine-3-carboxamide], for the setting “Human immunodeficiency virus 1”, the half-maximal inhibitory concentration (IC50) is < 10 nM.
On the same count and under the same terms, then `COCCNC(=O)c1c(O)c2ncc(Cc3ccccc3)cc2n(CC(=O)N2CCOCC2)c1=O` [Example 12], with < 10 nM; and `O=C(NCCOCCO)c1c(O)c2ncc(Cc3ccc(F)cc3)cc2[nH]c1=O` [Example 86, 7-[(4-Fluorophenyl)methyl]-4-hydroxy-N-{2-[(2-hydroxyethyl)oxy]ethyl}-2-oxo-1,2-dihydro-1,5-naphthyridine-3-carboxamide], with < 10 nM; and `COCCN(C)C(=O)Cn1c(=O)c(C(=O)NC(C)CO)c(O)c2ncc(Cc3ccc(F)cc3)cc21` (racemic) [Example 105, (±)-7-[(4-Fluorophenyl)methyl]-4-hydroxy-N-[2-hydroxy-1-methylethyl]-1-(2-{methyl[2-(methyloxy)ethyl]amino}-2-oxoethyl)-2-oxo-1,2-dihydro-1,5-naphthyridine-3-carboxamide], with < 10 nM.
Consider `COCCNC(=O)c1c(O)c2ncc(Cc3ccccc3)cc2n(CC2CC2)c1=O` [Example 54, 7-Benzyl-1-(cyclopropylmethyl)-4-hydroxy-N-(2-methoxyethyl)-2-oxo-1,2-dihydro-1,5-naphthyridine-3-carboxamide], for which, under “Human immunodeficiency virus 1”, the IC50 was < 10 nM.
With `CCOCCNC(=O)c1c(O)c2ncc(Cc3ccc(F)cc3)cc2n(CC(=O)N(C)CCOC)c1=O` [Example 107, N-[2-(ethyloxy)ethyl]-7-[(4-fluorophenyl)methyl]-4-hydroxy-1-(2-{methyl[2-(methyloxy)ethyl]amino}-2-oxoethyl)-2-oxo-1,2-dihydro-1,5-naphthyridine-3-carboxamide], the IC50 (Human immunodeficiency virus 1) is < 10 nM.
Still for that read-out and setting: the value for `COCCNC(=O)c1c(O)c2ncc(Cc3ccccc3)cc2n(Cc2ccc(S(C)(=O)=O)cc2)c1=O` [Example 45, 7-Benzyl-4-hydroxy-N-(2-methoxyethyl)-1-[4-(methylsulfonyl)benzyl]-2-oxo-1,2-dihydro-1,5-naphthyridine-3-carboxamide] was < 10 nM; that for `O=C(NCCCN1CCOCC1)c1c(O)c2ncc(Cc3ccc(F)cc3)cc2n(CC(=O)N2CCOCC2)c1=O` [Example 93, 7-[(4-Fluorophenyl)methyl]-4-hydroxy-1-[2-(4-morpholinyl)-2-oxoethyl]-N-[3-(4-morpholinyl)propyl]-2-oxo-1,2-dihydro-1,5-naphthyridine-3-carboxamide] was 10 to 25 nM.
For the compound `C[C@H](O)CNC(=O)c1c(O)c2ncc(Cc3ccc(F)cc3)cc2n(CCN2CCCC2=O)c1=O` [Example 428, 7-(4-Fluorobenzyl)-4-hydroxy-N-[(2S)-2-hydroxypropyl]-2-oxo-1-[2-(2-oxopyrrolidin-1-yl)ethyl]-2-dihydro-1,5-naphthyridine-3-carboxamide], where the note is “luciferase reporter following viral integration, read-out: IC50”, the IC50 is < 10 nM.
For the compound `O=C(NCCN1CCOCC1)c1c(O)c2ncc(Cc3ccc(F)cc3)cc2n(CC(=O)N2CCOCC2)c1=O` [Example 83, 7-[(4-Fluorophenyl)methyl]-4-hydroxy-N-[2-(4-morpholinyl)ethyl]-1-[2-(4-morpholinyl)-2-oxoethyl]-2-oxo-1,2-dihydro-1,5-naphthyridine-3-carboxamide], the 50% inhibitory concentration (IC50) (Human immunodeficiency virus 1) lay in the range of 10 to 25 nM.
On to `CCn1c(=O)c(C(=O)N[C@@H](C)CO)c(O)c2ncc(Cc3ccc(F)cc3)cc21` [Example 124, Sodium 1-ethyl-7-[(4-fluorophenyl)methyl]-3-({[(1S)-2-hydroxy-1-methylethyl]amino}carbonyl)-2-oxo-1,2-dihydro-1,5-naphthyridin-4-olate], for which the IC50 (Human immunodeficiency virus 1) is < 10 nM.
Consider `CNC(=O)Cn1c(=O)c(C(=O)NCCOC)c(O)c2ncc(Cc3ccc(F)cc3)cc21` [Example 465, 7-[(4-Fluorophenyl)methyl]-4-hydroxy-1-[2-(methylamino)-2-oxoethyl]-N-[2-(methyloxy)ethyl]-2-oxo-1,2-dihydro-1,5-naphthyridine-3-carboxamide], for which the IC50 (Human immunodeficiency virus 1) was < 10 nM.
Same read-out and setting: then `O=C(NCCCN1CCCC1=O)c1c(O)c2ncc(Cc3ccc(F)cc3)cc2n(CC(=O)N2CCOCC2)c1=O` [Example 94, 7-[(4-Fluorophenyl)methyl]-4-hydroxy-1-[2-(4-morpholinyl)-2-oxoethyl]-2-oxo-N-[3-(2-oxo-1-pyrrolidinyl)propyl]-1,2-dihydro-1,5-naphthyridine-3-carboxamide], with 10 to 25 nM; and `COCCNC(=O)c1c(O)c2ncc(Cc3ccc(F)cc3)cc2n(CC(=O)N(C)C)c1=O` [Example 89, 1-[2-(Dimethylamino)-2-oxoethyl]-7-[(4-fluorophenyl)methyl]-4-hydroxy-N-[2-(methyloxy)ethyl]-2-oxo-1,2-dihydro-1,5-naphthyridine-3-carboxamide], with < 10 nM; and `O=C(NCCO)c1c(O)c2ncc(Cc3ccc(F)cc3)cc2n(-c2ccc(F)cc2)c1=O` [Example 200, 1-(4-Fluorophenyl)-7-[(4-fluorophenyl)methyl]-4-hydroxy-N-(2-hydroxyethyl)-2-oxo-1,2-dihydro-1,5-naphthyridine-3-carboxamide], with < 10 nM.
In the case of `O=C(NCCN1CCOCC1)c1c(O)c2ncc(Cc3ccc(F)cc3)cc2[nH]c1=O` [Example 36, 7-[(4-Fluorophenyl)methyl]-4-hydroxy-N-[2-(4-morpholinyl)ethyl]-2-oxo-1,2-dihydro-1,5-naphthyridine-3-carboxamide], the IC50 (Human immunodeficiency virus 1) is < 10 nM.
Turning to `O=C(NCCN1CCOCC1)c1c(O)c2ncc(Cc3ccc(F)cc3)cc2n(CCN2CCCC2=O)c1=O` [Example 10, 7-(4-Fluorobenzyl)-4-hydroxy-N-(2-morpholin-4-ylethyl)-2-oxo-1-[2-(2-oxopyrrolidin-1-yl)ethyl]-1,2-dihydro-1,5-naphthyridine-3-carboxamide], the IC50 (Human immunodeficiency virus 1) is < 10 nM.
